The values below come from PMC5559490, “Synthesis of Saccharumoside-B analogue with potential of antiproliferative and pro-apoptotic activities” (Scientific Reports, 2017).

One may read the IC50 as the point on the concentration scale where inhibition reaches its midpoint.

The test system of assay [1] is human peripheral blood mononuclear cells (PBMC). Kind of assay: MTT assay on normal PBMC. In kind it is cell-based. To be noted: MTT assay, normal cells, 48 h, read-out: IC50 PBMC (normal cells). For orientation: Tetrazolium assays rely on reduction of a dye to a coloured formazan, in cell work by metabolically active cells.
For another assay, the system named is HL-60 leukemia cells. Description: MTT antiproliferative assay, HL-60. In kind it is cell-based, human. The settings on record: Homo sapiens, HL-60; MTT assay; cancer cell line; mean of three independent experiments ± S.E.M.; read-out: IC50 HL-60 Leukemia.
In assay [2] the test system is HeLa cervical cancer cells. Description: MTT antiproliferative assay, HeLa. It counts as cell-based. The settings on record: Homo sapiens, MTT assay, cancer cell line, mean of three independent experiments ± S.E.M., read-out: IC50 HeLa Cervical.
For assay [3], the system named is MIA PaCa-2 pancreatic cancer cells. Description: MTT antiproliferative assay, MIA PaCa-2. The settings on record: Homo sapiens, MIA PaCa-2; MTT assay; cancer cell line; mean of three independent experiments ± S.E.M.; read-out: IC50 MIA PaCa-2 Pancreatic. It counts as cell-based.
Assay [4] relates to CaCo-2 colon cancer cells. Description: MTT antiproliferative assay, CaCo-2. The settings on record: Homo sapiens, Caco-2; MTT assay; cancer cell line; mean of three independent experiments ± S.E.M.; read-out: IC50 CaCo-2 Colon. In kind it is cell-based.
The next assay relates to MCF-7 cells. Kind of assay: Rhodamine-123 mitochondrial membrane potential assay, MCF-7. To be noted: 24 h. In kind it is cell-based, human. As to the method:
[Worded in the source for another cell line; this cell line is reported under the same test.] Mitochondrial membrane potential changes (ΔΨm) were determined by flow cytometry using rhodamine-123 (green-fluorescent dye)[32]. MIA PaCa-2 pancreatic cancer cells (1 × 10^6 cells/well) were exposed to the isolated compound (5 µM) for 24 h. Further, rhodamine-123 (200 nM) was added to the cells, which were kept in dark for 35 min. The cells were further centrifuged and the pellet was washed with phosphate buffered saline (1 ml). The intensity of fluorescence in the cells represented the mitochondrial membrane potential change (ΔΨm), which was measured using a flow cytometer.

Assay [5] relates to MCF-10A mammary epithelial cells. Description: MTT assay on normal MCF-10A cells. In kind it is cell-based. The settings on record: Homo sapiens, MTT assay, normal cells, 48 h, read-out: IC50 MCF-10A Breast (normal cell line).
Assay [6] deals with MCF-7 breast cancer cells. Description: MTT antiproliferative assay, MCF-7. In kind it is cell-based. To be noted: Homo sapiens, MCF7; MTT assay; cancer cell line; mean of three independent experiments ± S.E.M.; read-out: IC50 MCF-7 Breast.
For assay [7], the system named is DU145 prostate cancer cells. Kind of assay: MTT antiproliferative assay, DU145. It counts as cell-based. The settings on record: Homo sapiens, DU-145; MTT assay; cancer cell line; mean of three independent experiments ± S.E.M.; read-out: IC50 DU145 Prostate.

Turning to `CC[C@@]1(O)C(=O)OCc2c1cc1n(c2=O)Cc2cc3ccccc3nc2-1` [Camptothecin, camptothecin, reference compound], the IC50 in [1] was > 100 µM; with HL-60 leukemia cells it was 4.95 ± 0.5 µM; in assay [2], 4.28 ± 0.32 µM; in assay [3], 4.24 ± 0.41 µM; in [4] it was 3.68 ± 0.21 µM; in assay [5], > 100 µM. Further, the IC50 in [6] was determined as 5.16 ± 0.32 µM; in [7], 6.75 ± 0.45 µM. Moreover, the “mitochondria membrane potential loss” value in the assay with MCF-7 cells (5 µM) is 53.33 ± 3.06%; in the assay on MCF-7 cells (10 µM), 62 ± 2.31%.
